In patent publication US12448388B2, “PRMT5 inhibitors and uses thereof” (Gilead Sciences, Inc., priority 2023, dated 2025):
Read-outs that look alike come from different tables or passages of the source.

System: HCT116 MTAP-deleted cell lines
Assay: Cell viability assay (CellTiter-Glo, 7 days), HCT116 MTAP-deleted
Format: cell-based
Conditions: Homo sapiens, HCT-116, HCT116 MTAP-deleted, class symbols, read-out: CC50
Outline: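 CC50 values come from 7-day CellTiter-Glo viability measurements on cells exposed to a dose range of PRMT5 inhibitors dispensed from DMSO stocks.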

| Compound | CC50 (cell viability) | CC50 (cell viability assay) |
| --- | --- | --- |
| C[C@H]1CN(C(=O)c2cc3c(cc2F)nc(N)c2cncn23)[C@H]2c3ccc(-c4cnn(C(F)F)c4)c(F)c3C[C@H]2O1 [Ff-200, (4-amino-7-fluoroimidazo[1,5-a]quinoxalin-8-yl)((2S,4aS,9aR)-7-(1-(difluoromethyl)-1H-pyrazol-4-yl)-8-fluoro-2-methyl-2,3,9,9a-tetrahydroindeno[2,1-b][1,4]oxazin-4(4aH)-yl)methanone] | < 100 nM | – |
| C[C@H](c1ncc(C(F)(F)F)cc1F)N(C)C(=O)c1cc2c(cc1F)nc(N)c1cncn12 [Ff-537, (R)-4-amino-7-fluoro-N-(1-(3-fluoro-5-(trifluoromethyl)pyridin-2-yl)ethyl)-N-methylimidazo[1,5-a]quinoxaline-8-carboxamide] | – | < 100 nM |
| CO[C@H]1COCC[C@H]1N(Cc1ccc(C(F)(F)F)cc1F)C(=O)c1cc2c(cc1F)nc(N)c1cncn12 [Ff-274, 4-amino-7-fluoro-N-(2-fluoro-4-(trifluoromethyl)benzyl)-N-((3R,4R)-3-methoxytetrahydro-2H-pyran-4-yl)imidazo[1,5-a]quinoxaline-8-carboxamide] | < 100 nM | – |
| Nc1nc2cc(F)c(C(=O)N3[C@@H](c4ccc(C(F)(F)F)cn4)CC[C@@H]4C[C@@H]43)cc2n2cncc12 (racemic) [Ff-293, Rac-(4-amino-7-fluoroimidazo[1,5-a]quinoxalin-8-yl)((1S,3R,6R)-3-(5-(trifluoromethyl)pyridin-2-yl)-2-azabicyclo[4.1.0]heptan-2-yl)methanone] | 100 to 1000 nM | – |
| Cc1ncc2c(N)nc3cnc(C(=O)N4CCC[C@@H]5Oc6c(ccc(OC(F)(F)F)c6F)[C@@H]54)cc3n12 [Ff-347, (4-amino-1-methylimidazo[1,5-a]pyrido[3,4-e]pyrazin-8-yl)((4aS,9bS)-6-fluoro-7-(trifluoromethoxy)-3,4,4a,9b-tetrahydrobenzofuro[3,2-b]pyridin-1(2H)-yl)methanone] | < 100 nM | – |
| CN(C(=O)c1cc2c(cc1F)nc(N)c1cncn12)[C@@H](c1ccc(OC(F)F)cc1F)C(F)F [Fb-10, (S)-4-amino-N-(1-(4-(difluoromethoxy)-2-fluorophenyl)-2,2-difluoroethyl)-7-fluoro-N-methylimidazo[1,5-a]quinoxaline-8-carboxamide] | < 100 nM | – |
| Cc1ncc2c(N)nc3ccc(C(=O)N4CCC5(CC4)COc4ccccc45)cc3n12 [Ff-61, (4-amino-1-methylimidazo[1,5-a]quinoxalin-8-yl)(2H-spiro[benzofuran-3,4′-piperidin]-1′-yl)methanone] | > 1000 nM | – |
| Cn1ccc(N(Cc2ccc(C(F)(F)F)cn2)C(=O)c2cc3c(cc2F)nc(N)c2cncn23)n1 [Ff-306, 4-amino-7-fluoro-N-(1-methyl-1H-pyrazol-3-yl)-N-((5-(trifluoromethyl)pyridin-2-yl)methyl)imidazo[1,5-a]quinoxaline-8-carboxamide] | < 100 nM | – |
| Nc1nc2cc(F)c(C(=O)N(Cc3ccc(C(F)(F)F)cc3F)c3cnn(C(F)F)c3)cc2n2cncc12 [Ff-291, 4-amino-N-(1-(difluoromethyl)-1H-pyrazol-4-yl)-7-fluoro-N-(2-fluoro-4-(trifluoromethyl)benzyl)imidazo[1,5-a]quinoxaline-8-carboxamide] | < 100 nM | – |
| C[C@@H]1C[C@@H]2Oc3cc(C(F)(F)F)ncc3[C@@H]2N(C(=O)c2cc3c(cc2F)nc(N)c2cncn23)C1 [Fg-20, (4-amino-7-fluoroimidazo[1,5-a]quinoxalin-8-yl)((3R,4aS,9bS)-3-methyl-7-(trifluoromethyl)-3,4,4a,9b-tetrahydrofuro[3,2-b:4,5-c′]dipyridin-1(2H)-yl)methanone] | – | < 100 nM |
| CN(C(=O)c1cc2c(cc1F)nc(N)c1cncn12)[C@@H]1COc2cc(C3CC3(F)F)ccc21 (stereo partly drawn) [Ff-574, 4-amino-N-((3S)-6-(2,2-difluorocyclopropyl)-2,3-dihydrobenzofuran-3-yl)-7-fluoro-N-methylimidazo[1,5-a]quinoxaline-8-carboxamide] | – | < 100 nM |
| CCN(Cc1ccc(F)cc1Cl)C(=O)c1ccc2nc(N)c3cncn3c2c1 [Ff-71, 4-amino-N-(2-chloro-4-fluorobenzyl)-N-ethylimidazo[1,5-a]quinoxaline-8-carboxamide] | 100 to 1000 nM | – |
| Nc1nc2cc(F)c(C(=O)N3CCO[C@@H]4Cc5ccccc5[C@@H]43)cc2n2cncc12 (racemic) [Ff-36, Racemic(4-amino-7-fluoroimidazo[1,5-a]quinoxalin-8-yl)((4aS,9aR)-2,3,9,9a-tetrahydroindeno[2,1-b][1,4]oxazin-4(4aH)-yl)methanone] | 100 to 1000 nM | – |
| Cc1ncc2c(N)nc3cc(F)c(C(=O)N4CCC[C@@H]5Oc6cc(C(F)(F)F)ccc6[C@@H]54)cc3n12 (racemic) [Ff-99, Rac-(4-amino-7-fluoro-1-methylimidazo[1,5-a]quinoxalin-8-yl)(7-(trifluoromethyl)-3,4,4a,9b-tetrahydrobenzofuro[3,2-b]pyridin-1(2H)-yl)methanone] | < 100 nM | – |
| Nc1nc2cc(Cl)c(C(=O)N3CC[C@H]4C[C@@H]3c3ccc(OC(F)F)cc34)cc2n2cncc12 [Ff-598, (4-amino-7-chloroimidazo[1,5-a]quinoxalin-8-yl)((1R,5S)-7-(difluoromethoxy)-1,3,4,5-tetrahydro-2H-1,5-methanobenzo[c]azepin-2-yl)methanone] | – | < 100 nM |
| Nc1nc2cc(F)c(C(=O)N3CCO[C@@H]4Cc5cc(C(F)(F)F)c(F)cc5[C@@H]43)cc2n2cncc12 [Ff-326, (4-amino-7-fluoroimidazo[1,5-a]quinoxalin-8-yl)((4aS,9aR)-6-fluoro-7-(trifluoromethyl)-2,3,9,9a-tetrahydroindeno[2,1-b][1,4]oxazin-4(4aH)-yl)methanone] | < 100 nM | – |
| CN(C(=O)c1cc2c(cc1F)nc(N)c1cncn12)[C@@H]1COc2cc(C#CC(C)(C)O)ccc21 [Ff-442, 4-amino-7-fluoro-N-[(3S)-6-(3-hydroxy-3-methyl-but-1-ynyl)-2,3-dihydrobenzofuran-3-yl]-N-methyl-imidazo[1,5-a]quinoxaline-8-carboxamide] | – | < 100 nM |
| Nc1nc2cc(F)c(C(=O)N(Cc3ccc(F)cc3Cl)C3CCC3)cc2n2cncc12 [Ff-73, 4-amino-N-(2-chloro-4-fluorobenzyl)-N-cyclobutyl-7-fluoroimidazo[1,5-a]quinoxaline-8-carboxamide] | 100 to 1000 nM | – |
| Cc1ncn2c1c(N)nc1cc(F)c(C(=O)N(C)[C@@H]3COc4cc(C(C)(F)F)ccc43)cc12 [Ff-382, (S)-4-amino-N-(6-(1,1-difluoroethyl)-2,3-dihydrobenzofuran-3-yl)-7-fluoro-N,3-dimethylimidazo[1,5-a]quinoxaline-8-carboxamide] | – | < 100 nM |
| Nc1nc2cnc(C(=O)N3CC[C@H]4C[C@@H]3c3ccc(Cl)nc34)cc2n2cncc12 [Ff-602, (4-aminoimidazo[1,5-a]pyrido[3,4-e]pyrazin-8-yl)((5R,9S)-2-chloro-5,7,8,9-tetrahydro-6H-5,9-methanopyrido[3,2-c]azepin-6-yl)methanone] | – | 100 to 1000 nM |
| CN(C(=O)c1cc2c(cn1)nc(N)c1cncn12)C1CCc2cc(C(F)(F)F)ccc21 (stereo not drawn) [Ff-436, 7-amino-N-methyl-N-[5-(trifluoromethyl)indan-1-yl]-2,4,8,11-tetrazatricyclo[7.4.0.02,6]trideca-1(13),3,5,7,9,11-hexaene-12-carboxamide] | – | < 100 nM |
| Nc1nc2cc(F)c(C(=O)N3CCC[C@@H]4Oc5cc(OC(F)(F)F)c(F)cc5[C@@H]43)cc2n2cncc12 (racemic) [Ff-333, Rac-(4-amino-7-fluoroimidazo[1,5-a]quinoxalin-8-yl)((4aS,9bS)-8-fluoro-7-(trifluoromethoxy)-3,4,4a,9b-tetrahydrobenzofuro[3,2-b]pyridin-1(2H)-yl)methanone] | < 100 nM | – |
| CN(C(=O)c1ccc2nc(N)c3cncn3c2c1)[C@@H]1COc2cc(C(F)(F)F)c(F)cc21 [Ff-353, (S)-4-amino-N-(5-fluoro-6-(trifluoromethyl)-2,3-dihydrobenzofuran-3-yl)-N-methylimidazo[1,5-a]quinoxaline-8-carboxamide] | < 100 nM | – |
| CN(C(=O)c1cc2c(cc1F)nc(N)c1cncn12)[C@H]1COc2cc(OC(F)(F)F)ccc21 (single isomer, unassigned) [Ff-558] | – | 100 to 1000 nM |
| Nc1nc2ccc(C(=O)N3CCC[C@@H]4Oc5cc(C(F)(F)F)ccc5[C@@H]43)cc2n2cnc(F)c12 [Ff-588, (4-amino-3-fluoroimidazo[1,5-a]quinoxalin-8-yl)((4aS,9bS)-7-(trifluoromethyl)-3,4,4a,9b-tetrahydrobenzofuro[3,2-b]pyridin-1(2H)-yl)methanone] | – | < 100 nM |
| CN(C(=O)c1cc2c(cc1F)nc(N)c1cncn12)[C@@H]1COc2cc(Cl)c(F)cc21 (single isomer, unassigned) [Ff-597] | – | < 100 nM |
| Nc1nc2cc(Cl)c(C(=O)N3CCO[C@@H]4Cc5cc(C(F)(F)F)ccc5[C@@H]43)cc2n2cncc12 (racemic) [Ff-35, Racemic (4-amino-7-chloroimidazo[1,5-a]quinoxalin-8-yl)((4aS,9aR)-7-(trifluoromethyl)-2,3,9,9a-tetrahydroindeno[2,1-b][1,4]oxazin-4(4aH)-yl)methanone] | < 100 nM | – |
| C[C@H]1CN(C(=O)c2cc3c(cc2F)nc(N)c2cncn23)[C@H]2c3ccc(OC(F)(F)F)cc3C[C@H]2O1 (single isomer, unassigned) [Ff-184] | < 100 nM | – |
| C[C@@H]1C[C@@H]2Oc3nc(C(F)(F)F)ccc3[C@@H]2N(C(=O)c2cc3c(cc2F)nc(N)c2cncn23)C1 [Ff-375, (4-amino-7-fluoroimidazo[1,5-a]quinoxalin-8-yl)((3R,4aS,9bS)-3-methyl-7-(trifluoromethyl)-3,4,4a,9b-tetrahydrofuro[2,3-b:4,5-b′]dipyridin-1(2H)-yl)methanone] | – | < 100 nM |
| CN(C(=O)c1cc2c(cc1F)nc(N)c1cncn12)[C@@H](c1ccc(OC(F)(F)F)cc1)C(F)F [Fb-13, (S)-4-amino-N-(2,2-difluoro-1-(4-(trifluoromethoxy)phenyl)ethyl)-7-fluoro-N-methylimidazo[1,5-a]quinoxaline-8-carboxamide] | < 100 nM | – |
